Test results taken from BindingDB's records for doi:10.7270/Q2H70D5W (University of Pittsburgh, 2007).

Target: Gag-Pol polyprotein (Human immunodeficiency virus type 1 group M subtype B (isolate HXB2), UniProt P04585)
Assay: concentration-response of HIV-1 RNase H blockers – biochemical, probe assessment, dose response (AID 652)
Conditions: pH 8; 23 °C

| SMILES | IC50 [µM] |
| --- | --- |
| Nc1sc2c(c1C(=O)NC1CCS(=O)(=O)C1)CCC2 (centres undefined) [2-Amino-5,6-dihydro-4H-cyclopenta[b]thiophene-3-carboxylic acid (1,1-dioxo-tetrahydro-1lambda*6*-thiophen-3-yl)-amide] | 26.8 |
| O=c1c2ccccc2[se]n1-c1ccccc1 [2-Phenyl-benzo[d]isoselenazol-3-one] | > 50 |
| Cc1cccc(C)c1NC(=O)CSCC(=O)c1ccc(O)c(O)c1 [2-[2-(3,4-dihydroxyphenyl)-2-oxoethyl]sulfanyl-N-(2,6-dimethylphenyl)acetamide] | 3.8 |
| Cc1ccc2c(SCC(=O)NCc3ccco3)nc(-c3ccc(F)cc3)nc2c1 [2-[2-(4-Fluoro-phenyl)-7-methyl-quinazolin-4-ylsulfanyl]-N-furan-2-ylmethyl-acetamide] | 3.34 |
| NC(=O)c1cc(-c2ccccc2)sc1NC(=O)Cc1ccc(S(=O)(=O)N2CCOCC2)s1 [2-[2-(5-morpholin-4-ylsulfonylthiophen-2-yl)ethanoylamino]-5-phenyl-thiophene-3-carboxamide] | 7.35 |
| Cc1cc(C)c2c(=O)n(CC(=O)N3CCC(N4CCCCC4)CC3)sc2n1 [2-[2-keto-2-(4-piperidinopiperidino)ethyl]-4,6-dimethyl-isothiazolo[5,4-b]pyridin-3-one] | 38.4 |
| Cc1cccc(N2CCN(C(=O)Cn3sc4nc(C)cc(C)c4c3=O)CC2C)c1 (centres undefined) [2-[2-keto-2-[3-methyl-4-(m-tolyl)piperazino]ethyl]-4,6-dimethyl-isothiazolo[5,4-b]pyridin-3-one] | 4.28 |
| Cc1cc(C)c(NC(=O)Cn2c(=O)n(Cc3ccco3)c(=O)c3ccccc32)c(C)c1 [2-[3-(2-furanylmethyl)-2,4-dioxo-1-quinazolinyl]-N-(2,4,6-trimethylphenyl)acetamide] | 47.8 |
| CN(c1ccccc1)c1ccc(C=c2s/c(=C(/C#N)C(=O)C(C)(C)C)n(Cc3ccco3)c2=O)cc1 [2-[3-(furan-2-ylmethyl)-5-[[4-(N-methylanilino)phenyl]methylidene]-4-oxo-1,3-thiazolidin-2-ylidene]-4,4-dimethyl-3-oxopentanenitrile] | 2.01 |
| N#Cc1nc(-c2ccc(OCc3ccc(Cl)cc3)cc2)oc1NCc1cccnc1 [2-[4-(4-chlorobenzyl)oxyphenyl]-5-(3-pyridylmethylamino)oxazole-4-carbonitrile] | 12.9 |
| CCOC(=O)N1CCc2c(sc3c2C(=O)NC(c2ccc(-c4ccc(Cl)cc4)o2)N3)C1 (centres undefined) [2-[5-(4-chlorophenyl)-2-furanyl]-4-oxo-1,2,3,5,6,8-hexahydropyrido[2,3]thieno[2,4-d]pyrimidine-7-carboxylic acid ethyl ester] | 5.27 |
| Cc1cc(NC(=O)CSc2ccc(-c3nc4cc(C)c(C)cc4[nH]3)cn2)no1 [2-[5-(5,6-Dimethyl-1H-benzoimidazol-2-yl)-pyridin-2-ylsulfanyl]-N-(5-methyl-isoxazol-3-yl)-acetamide] | 16.7 |
| N#Cc1c(N)nc(SCC(=O)NC2CCCCC2)c(C#N)c1-c1ccc(Cl)cc1 [2-[6-amino-4-(4-chlorophenyl)-3,5-dicyanopyridin-2-yl]sulfanyl-N-cyclohexylacetamide] | 4.42 |
| O=c1c(=Cc2cccn2-c2ccccc2)sc2nc3ccccc3n12 [2-[(1-phenyl-2-pyrrolyl)methylidene]-1-thiazolo[3,2-a]benzimidazolone] | 2.83 |
| Cc1noc(C)c1CSc1nc2cc(S(=O)(=O)N3CCOCC3)ccc2o1 [2-[(3,5-dimethyl-1,2-oxazol-4-yl)methylsulfanyl]-5-morpholin-4-ylsulfonyl-1,3-benzoxazole] | 2.3 |
| COC(=O)c1ccccc1NC(=O)c1sc(=S)n(C)c1N [2-[(4-amino-3-methyl-2-thioxo-4-thiazoline-5-carbonyl)amino]benzoic acid methyl ester] | 4.43 |
| Cc1ccc(/C=C/C2=Cc3c(sc(NC(=O)CSc4nnc(N)[nH]4)c3C#N)C(C)(C)C2)o1 [2-[(5-azanyl-1H-1,2,4-triazol-3-yl)sulfanyl]-N-[3-cyano-7,7-dimethyl-5-[(E)-2-(5-methylfuran-2-yl)ethenyl]-6H-1-benzothiophen-2-yl]ethanamide] | 0.9 |
| CCOC(=O)c1c(NC(=O)c2cc(C3CC3)on2)sc2c1CCCC2 [2-[(5-cyclopropylisoxazole-3-carbonyl)amino]-4,5,6,7-tetrahydrobenzothiophene-3-carboxylic acid ethyl ester] | 1.7 |
| Cc1cc(NC(=O)CSc2nc3cc4c(cc3c(=O)n2CCc2ccccc2)OCO4)no1 [2-[(8-keto-7-phenethyl-[1,3]dioxolo[4,5-g]quinazolin-6-yl)thio]-N-(5-methylisoxazol-3-yl)acetamide] | 4.79 |
| COC(=O)c1ccc2c(=O)n(Cc3ccco3)c(SCC(=O)Nc3ccccc3Cl)nc2c1 [2-[[2-(2-chloroanilino)-2-keto-ethyl]thio]-3-(2-furfuryl)-4-keto-quinazoline-7-carboxylic acid methyl ester] | 4.65 |
| COC(=O)c1ccccc1NC(=O)c1ccc2c(c1)C(=O)N(Cc1ccco1)C2=O [2-[[2-(2-furfuryl)-1,3-diketo-isoindoline-5-carbonyl]amino]benzoic acid methyl ester] | 7.36 |
| COC(=O)c1ccc2c(=O)n(Cc3ccco3)c(SCC(=O)Nc3ccc(C)c(Cl)c3)nc2c1 [2-[[2-(3-chloro-4-methyl-anilino)-2-keto-ethyl]thio]-3-(2-furfuryl)-4-keto-quinazoline-7-carboxylic acid methyl ester] | 2.79 |

| SMILES | IC50 [µM] |
| --- | --- |
| CCc1ccc(NC(=O)CSc2nc3cc(C(=O)OC)ccc3c(=O)n2Cc2ccco2)cc1 [2-[[2-(4-ethylanilino)-2-keto-ethyl]thio]-3-(2-furfuryl)-4-keto-quinazoline-7-carboxylic acid methyl ester] | 2.32 |
| Cc1cccc(-c2nsc(SCC(=O)Nc3nccs3)n2)c1 [2-[[3-(3-methylphenyl)-1,2,4-thiadiazol-5-yl]sulfanyl]-N-(1,3-thiazol-2-yl)acetamide] | 3.81 |
| CCOC(=O)CSc1nc2cc(C(=O)NCc3ccco3)ccc2c(=O)n1-c1ccc(F)cc1 [2-[[3-(4-fluorophenyl)-7-(2-furfurylcarbamoyl)-4-keto-quinazolin-2-yl]thio]acetic acid ethyl ester] | 13.1 |
| COc1ccc(-c2nsc(SCC(=O)Nc3cc(C)on3)n2)cc1 [2-[[3-(4-methoxyphenyl)-1,2,4-thiadiazol-5-yl]sulfanyl]-N-(5-methyl-1,2-oxazol-3-yl)acetamide] | 3.01 |
| Cc1ccccc1NC(=O)CSc1nc2c(c(-c3ccco3)c1C#N)CCCC2 [2-[[3-cyano-4-(2-furanyl)-5,6,7,8-tetrahydroquinolin-2-yl]thio]-N-(2-methylphenyl)acetamide] | 5.23 |
| N#Cc1c(SCC(=O)Nc2nccs2)nc2c(c1-c1ccco1)CCCC2 [2-[[3-cyano-4-(2-furanyl)-5,6,7,8-tetrahydroquinolin-2-yl]thio]-N-(2-thiazolyl)acetamide] | 4.3 |
| CCOC(=O)CSc1nc2cc(C(=O)NCc3ccco3)ccc2c(=O)n1C1CCCCC1 [2-[[3-cyclohexyl-7-(2-furfurylcarbamoyl)-4-keto-quinazolin-2-yl]thio]acetic acid ethyl ester] | 6.07 |
| CCOC(=O)c1c(NC(=O)c2ccc(-n3cnnn3)cc2)sc2c1CCCC2 [2-[[4-(tetrazol-1-yl)benzoyl]amino]-4,5,6,7-tetrahydrobenzothiophene-3-carboxylic acid ethyl ester] | 2.81 |
| CC(C)OC(=O)CSc1nnc(-c2ccc(C(C)(C)C)cc2)n1N [2-[[4-amino-5-(4-tert-butylphenyl)-1,2,4-triazol-3-yl]thio]acetic acid isopropyl ester] | > 50 |
| Cc1cc(C(=O)CSc2nnc(-c3ccc(OC(F)F)cc3)o2)c(C)n1Cc1cccs1 [2-[[5-[4-(difluoromethoxy)phenyl]-1,3,4-oxadiazol-2-yl]sulfanyl]-1-[2,5-dimethyl-1-(thiophen-2-ylmethyl)pyrrol-3-yl]ethanone] | 1.88 |
| C=CCNC(=O)c1c(N)n(-c2ccc3c(c2)OCO3)c2nc3ccccc3nc12 [2-amino-1-(1,3-benzodioxol-5-yl)-N-prop-2-enyl-3-pyrrolo[3,2-b]quinoxalinecarboxamide] | 32.7 |
| CCOC(=O)c1c(N)sc2c1CCC1C(=O)N(C3CCCCC3)C(=O)C21 (centres undefined) [2-amino-7-cyclohexyl-6,8-diketo-4,5,5a,8a-tetrahydrothien[2,3-e]isoindole-3-carboxylic acid ethyl ester] | 4.84 |
| CSc1ccc(C2c3ccc(=O)c4c(C)oc(C)c4c3OC(=N)C2C#N)cc1 (centres undefined) [2-amino-7-keto-8,10-dimethyl-4-[4-(methylthio)phenyl]-4H-furo[1,2]cyclohepta[4,6-d]pyran-3-carbonitrile] | 5.81 |
| CC(C)CNC(=O)c1c(N)n(N=Cc2ccccn2)c2nc3ccccc3nc12 [2-amino-N-(2-methylpropyl)-1-(2-pyridinylmethylideneamino)-3-pyrrolo[3,2-b]quinoxalinecarboxamide] | 9.34 |
| Cc1cc(C)c(C#N)c(=N)o1 [2-azanylidene-4,6-dimethyl-pyran-3-carbonitrile] | 0.298 |
| Cc1cccc(C(=O)OCC(=O)Nc2ccc(N3CCCCC3)cc2)c1O [2-hydroxy-3-methyl-benzoic acid [2-keto-2-(4-piperidinoanilino)ethyl] ester] | 13.2 |
| O=C(O)c1cc(S(=O)(=O)Nc2ccc3oc(=O)sc3c2)ccc1O [2-hydroxy-5-[(2-keto-1,3-benzoxathiol-5-yl)sulfamoyl]benzoic acid] | 7.39 |
| O=C(c1ccc2c3c(cccc13)C(=O)N(O)C2=O)N1CCCCC1 [2-hydroxy-6-(piperidine-1-carbonyl)benzo[de]isoquinoline-1,3-dione] | 4.19 |
| Cc1cc(-c2nn3c(-c4ccccc4)nnc3s2)c2ccccc2n1 [2-methyl-4-(3-phenyl[1,2,4]triazolo[3,4-b][1,3,4]thiadiazol-6-yl)quinoline] | 2.6 |
| O=C(O)/C=C/c1ccc(O)c(O)c1 [3,4-Dihydroxycinnamate, XVII] | > 50 |
| c1ccc(-c2ccc(-c3ccccn3)nn2)nc1 [3,6-bis(2-pyridinyl)pyridazine] | 15.4 |
| c1ccc2c(c1)ncn2Cc1nnc2sc(-c3ccc4c(c3)OCO4)nn12 [3-(1-benzimidazolylmethyl)-6-(1,3-benzodioxol-5-yl)-[1,2,4]triazolo[3,4-b][1,3,4]thiadiazole] | 1.23 |
